The assay addresses T1, DGAT1 enzyme (Homo sapiens, UniProt O75907).
T1 construct: made in house
T1 sequence (O75907 1-488): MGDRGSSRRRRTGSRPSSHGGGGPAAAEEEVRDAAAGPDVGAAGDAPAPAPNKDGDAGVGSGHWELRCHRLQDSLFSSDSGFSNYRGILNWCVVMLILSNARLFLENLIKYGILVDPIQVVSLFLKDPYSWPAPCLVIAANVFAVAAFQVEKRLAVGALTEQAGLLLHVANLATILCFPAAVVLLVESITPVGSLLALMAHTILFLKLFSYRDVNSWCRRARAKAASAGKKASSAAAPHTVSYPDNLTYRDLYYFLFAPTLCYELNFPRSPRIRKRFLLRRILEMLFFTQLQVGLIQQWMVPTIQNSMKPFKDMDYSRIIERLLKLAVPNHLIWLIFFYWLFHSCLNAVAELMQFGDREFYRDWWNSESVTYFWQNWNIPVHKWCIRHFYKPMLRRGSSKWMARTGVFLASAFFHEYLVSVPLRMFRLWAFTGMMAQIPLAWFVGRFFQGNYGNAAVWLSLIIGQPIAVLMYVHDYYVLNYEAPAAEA
Nature of the assay: DGAT1 inhibitory activity test. Particulars: test compound concentration of 0.05 μg/ml; [14C]-oleoyl-CoA, 23° C., 30 minutes; read-out: Inhibitory Rate. In kind it is biochemical. How it is done:
(1) Preparation of DGAT1 Enzyme
DGAT1 enzyme was prepared and stored according to the method described in US2007/0249620.
(2) DGAT1 Inhibitory Activity Test
A reaction solution having the following composition was incubated at room temperature (23° C.) for 30 minutes: 175 mM Tris-HCl (pH 8.0), 8 mM MgCl2, 1 mg/ml BSA, 0.3 mM 1,2-dioleoyl-sn-glycerol (10-fold concentration of EtOH solution, 10% added), 10 μM [^14C]-oleoyl-CoA (approximately 50 mCi/mmol), 0.5% Triton X-100, the DGAT1 enzyme (10 μg) obtained in Test Example 1(1), and a test compound or vehicle (DMSO/MeOH, 7:3 solution, 5% added), 50 μl in total. A reaction stop solution […] consisting of isopropanol/1-heptane/water (80:20:2, v/v/v) was added to the reaction solution and stirred. Subsequently, water […] and 1-heptane (100 μl) were added thereto and stirred. The 1-heptane layer […] was spotted onto a TLC plate and developed with a developing solvent consisting of 1-hexane/diethyl ether/acetic acid (85:15:1, v/v/v). The radioactivity of the triglyceride fraction was quantified using BAS2500 Bio Image Analyzer (FUJIFILM) and compared with the control. The inhibitory activity of the test compound was calculated according to the formula shown below. In this context, the radioactivity at no reaction (0 minute incubation) was used as background.
Inhibitory Rate=100−[(Radioactivity of sample supplemented with test compound)−(Background)]/[(Radioactivity of control)−(Background)]×100

Inhibition data for 22 molecules are collected here from patent publication US20120202847A1, “Novel Tetrahydroisoquinoline Compounds” (priority 2009, published 2012).

The structures appear in SMILES notation.

On to `O=C(O)C[C@H]1CC[C@H](OC(=O)N2CCc3cc(NC(=O)Nc4c(F)cccc4C(F)(F)F)ccc3C2)CC1` [Example 25, trans-6-[3-(2-fluoro-6-trifluoromethyl-phenyl)-ureido]-3,4-dihydro-1H-isoquinoline-2-carboxylic acid 4-carboxymethyl-cyclohexyl ester], for which the inhibition at 0.05 µg/mL was no less than 50%.

`Cc1cc(Cl)ccc1NC(=O)Nc1ccc2c(c1)CCN(C(=O)O[C@H]1CC[C@H](CC(=O)O)CC1)C2` [Example 26]: the inhibition at 0.05 µg/mL is no less than 50%.

Take `Cc1cccc(NC(=O)Nc2ccc3c(c2)CCN(C(=O)O[C@H]2CC[C@H](CC(=O)O)CC2)C3)c1Cl` [Example 27, trans-6-[3-(2-chloro-3-methyl-phenyl)-ureido]-3,4-dihydro-1H-isoquinoline-2-carboxylic acid 4-carboxymethyl-cyclohexyl ester]: the inhibition at 0.05 µg/mL was no less than 50%.

For `O=C(O)C[C@H]1CC[C@H](OC(=O)N2CCc3cc(NC(=O)Nc4ccc(Cl)cc4C(F)(F)F)ccc3C2)CC1` [Example 28, trans-6-[3-(4-chloro-2-trifluoromethyl-phenyl)-ureido]-3,4-dihydro-1H-isoquinoline-2-carboxylic acid 4-carboxymethyl-cyclohexyl ester], the inhibition at 0.05 µg/mL was no less than 50%.

Regarding `O=C(O)C[C@H]1CC[C@H](OC(=O)N2CCc3cc(NC(=O)Nc4ccc(C(F)(F)F)cc4Cl)ccc3C2)CC1` [Example 29, trans-6-[3-(2-chloro-4-trifluoromethyl-phenyl)-ureido]-3,4-dihydro-1H-isoquinoline-2-carboxylic acid 4-carboxymethyl-cyclohexyl ester], the inhibition at 0.05 µg/mL was no less than 50%.

As to `Cc1ccc(NC(=O)Nc2ccc3c(c2)CCN(C(=O)O[C@H]2CC[C@H](CC(=O)O)CC2)C3)cc1F` [Example 30, trans-6-[3-(3-fluoro-4-methyl-phenyl)-ureido]-3,4-dihydro-1H-isoquinoline-2-carboxylic acid 4-carboxymethyl-cyclohexyl ester], the inhibition at 0.05 µg/mL is no less than 50%.

As for `O=C(O)C[C@H]1CC[C@H](OC(=O)N2CCc3cc(NC(=O)Nc4cc(F)cc(F)c4)ccc3C2)CC1` [Example 31, trans-6-[3-(3,5-difluoro-phenyl)-ureido]-3,4-dihydro-1H-isoquinoline-2-carboxylic acid 4-carboxymethyl-cyclohexyl ester], the inhibition at 0.05 µg/mL is no less than 50%.

As to `O=C(O)C[C@H]1CC[C@H](OC(=O)N2CCc3cc(NC(=O)Nc4ccc(F)c(Cl)c4)ccc3C2)CC1` [Example 32, trans-6-[3-(3-chloro-4-fluoro-phenyl)-ureido]-3,4-dihydro-1H-isoquinoline-2-carboxylic acid 4-carboxymethyl-cyclohexyl ester], the inhibition at 0.05 µg/mL was no less than 50%.

Take `Cc1cc(C)cc(NC(=O)Nc2ccc3c(c2)CCN(C(=O)O[C@H]2CC[C@H](CC(=O)O)CC2)C3)c1` [Example 33, trans-6-[3-(3,5-dimethyl-phenyl)-ureido]-3,4-dihydro-1H-isoquinoline-2-carboxylic acid 4-carboxymethyl-cyclohexyl ester]: the inhibition at 0.05 µg/mL was no less than 50%.

On to `Cc1ccc(NC(=O)Nc2ccc3c(c2)CCN(C(=O)O[C@H]2CC[C@H](CC(=O)O)CC2)C3)cc1Cl` [Example 34, trans-6-[3-(3-chloro-4-methyl-phenyl)-ureido]-3,4-dihydro-1H-isoquinoline-2-carboxylic acid 4-carboxymethyl-cyclohexyl ester], for which the inhibition at 0.05 µg/mL was no less than 50%.

In the case of `Cc1cccc(NC(=O)Nc2ccc3c(c2)CCN(C(=O)O[C@H]2CC[C@H](CC(=O)O)CC2)C3)c1C` [Example 35, trans-6-[3-(2,3-dimethyl-phenyl)-ureido]-3,4-dihydro-1H-isoquinoline-2-carboxylic acid 4-carboxymethyl-cyclohexyl ester], the inhibition at 0.05 µg/mL was no less than 50%.

For `Cc1c(Cl)cccc1NC(=O)Nc1ccc2c(c1)CCN(C(=O)O[C@H]1CC[C@H](CC(=O)O)CC1)C2` [Example 36, trans-6-[3-(3-chloro-2-methyl-phenyl)-ureido]-3,4-dihydro-1H-isoquinoline-2-carboxylic acid 4-carboxymethyl-cyclohexyl ester], the inhibition at 0.05 µg/mL is no less than 50%.

With `O=C(O)C[C@H]1CC[C@H](OC(=O)N2CCc3cc(NC(=O)Nc4cccc(Cl)c4Cl)ccc3C2)CC1` [Example 37, trans-6-[3-(2,3-dichloro-phenyl)-ureido]-3,4-dihydro-1H-isoquinoline-2-carboxylic acid 4-carboxymethyl-cyclohexyl ester], the inhibition at 0.05 µg/mL was no less than 50%.

As to `Cc1cc(NC(=O)Nc2ccc3c(c2)CCN(C(=O)O[C@H]2CC[C@H](CC(=O)O)CC2)C3)ccc1F` [Example 38, trans-6-[3-(4-fluoro-3-methyl-phenyl)-ureido]-3,4-dihydro-1H-isoquinoline-2-carboxylic acid 4-carboxymethyl-cyclohexyl ester], the inhibition at 0.05 µg/mL is no less than 50%.

`COc1cc(NC(=O)Nc2ccc3c(c2)CCN(C(=O)O[C@H]2CC[C@H](CC(=O)O)CC2)C3)cc(OC)c1` [Example 39, trans-6-[3-(3,5-dimethoxy-phenyl)-ureido]-3,4-dihydro-1H-isoquinoline-2-carboxylic acid 4-carboxymethyl-cyclohexyl ester]: the inhibition at 0.05 µg/mL was no less than 50%.

For `O=C(O)C[C@H]1CC[C@H](OC(=O)N2CCc3cc(NC(=O)Nc4ccc(Cl)c(Cl)c4)ccc3C2)CC1` [Example 40, trans-6-[3-(3,4-dichloro-phenyl)-ureido]-3,4-dihydro-1H-isoquinoline-2-carboxylic acid 4-carboxymethyl-cyclohexyl ester], the inhibition at 0.05 µg/mL was no less than 50%.

As for `COc1ccc(NC(=O)Nc2ccc3c(c2)CCN(C(=O)O[C@H]2CC[C@H](CC(=O)O)CC2)C3)cc1Cl` [Example 41, trans-6-[3-(3-chloro-4-methoxy-phenyl)-ureido]-3,4-dihydro-1H-isoquinoline-2-carboxylic acid 4-carboxymethyl-cyclohexyl ester], the inhibition at 0.05 µg/mL was no less than 50%.

Turning to `COc1cccc(NC(=O)Nc2ccc3c(c2)CCN(C(=O)O[C@H]2CC[C@H](CC(=O)O)CC2)C3)c1F` [Example 42, trans-6-[3-(2-fluoro-3-methoxy-phenyl)-ureido]-3,4-dihydro-1H-isoquinoline-2-carboxylic acid 4-carboxymethyl-cyclohexyl ester], the inhibition at 0.05 µg/mL is no less than 50%.

`O=C(O)C[C@H]1CC[C@H](OC(=O)N2CCc3cc(NC(=O)Nc4cc(Cl)cc(Cl)c4)ccc3C2)CC1` [Example 43, trans-6-[3-(3,5-dichloro-phenyl)-ureido]-3,4-dihydro-1H-isoquinoline-2-carboxylic acid 4-carboxymethyl-cyclohexyl ester]: the inhibition at 0.05 µg/mL was no less than 50%.

As to `COc1ccc(NC(=O)Nc2ccc3c(c2)CCN(C(=O)O[C@H]2CC[C@H](CC(=O)O)CC2)C3)cc1OC` [Example 44, trans-6-[3-(3,4-dimethoxy-phenyl)-ureido]-3,4-dihydro-1H-isoquinoline-2-carboxylic acid 4-carboxymethyl-cyclohexyl ester], the inhibition at 0.05 µg/mL was no less than 50%.

`COc1ccc(NC(=O)Nc2ccc3c(c2)CCN(C(=O)O[C@H]2CC[C@H](CC(=O)O)CC2)C3)cc1F` [Example 45, trans-6-[3-(3-fluoro-4-methoxy-phenyl)-ureido]-3,4-dihydro-1H-isoquinoline-2-carboxylic acid 4-carboxymethyl-cyclohexyl ester]: the inhibition at 0.05 µg/mL is no less than 50%.

For `O=C(O)C[C@H]1CC[C@H](OC(=O)N2CCc3cc(NC(=O)Nc4cccc(Cl)c4)ccc3C2)CC1` [Example 46, trans-6-[3-(3-chloro-phenyl)-ureido]-3,4-dihydro-1H-isoquinoline-2-carboxylic acid 4-carboxymethyl-cyclohexyl ester], the inhibition at 0.05 µg/mL is no less than 50%.
